Assay results as given in US11661431B2, “Thienopyrrole compounds” (Gilead Sciences, Inc., priority 2021, dated 2023).
In brackets after ≈: the same amount, converted by molar mass. Where two headings read alike, the source gives them in different places.

Key:
TLR8 = TLR8 (Homo sapiens (Human), UniProt Q9NR97); test: TLR8 human peripheral blood mononuclear cell (PBMC) cell-based assay (Compound A as agonist; TNFα and IL12p40 readout); conditions: human PBMCs, TLR8 agonist Compound A at 800 nM, 6 hours, antagonist potency; read-out: TLR-8 EC50
[1] = Kinetic solubility at pH 7.4; conditions: 1×PBS buffer (pH 7.4), 22.8 °C, pH 7.4, aqueous buffer, kinetic from dmso stock
Experimental: Kinetic Solubility at pH 7.4
(§1) The final DMSO Concentration was 1.0% and maximum theoretical compound concentration is 100 μM. The filter plate was sealed. […] The collection plate was sealed for analysis.
(§2) Filtrates were injected into the nitrogen detector for quantification on Analiza's Automated Discovery Workstation. The results are reported in μg/ml.
(§3) The filtrates were quantified with respect to this calibration curve. The calculated solubility values were corrected for background nitrogen present in the DMSO, and the media used to prepare the samples.
(§4) The 1×PBS buffer (pH 7.4) was prepared by adding 50 mL of phosphate buffered saline solution 10×, PBS (Fisher Bioreagent part number BP399-500) to approximately 450 mL HPLC grade H2O. The volume of the solution was then adjusted to 500 mL for a total dilution factor of 1:10 and a final PBS concentration of 1×. The pH of the final solution was measured and found to be 7.4.
(§5) Each compound tested was analyzed as a trifluoroacetate salt.

[2] = test system: cryopreserved hepatocytes; test: Human hepatic stability in cryopreserved hepatocytes; conditions: 1×10^6 cells/mL, aliquots at 0, 1, 3 and 6 hours, LC-MS/MS
Experimental: (§6) Each tested compound was incubated in suspensions of cryopreserved hepatocytes at a final concentration of 1 μM. Vials containing cryopreserved hepatocytes were removed from liquid nitrogen and immediately immersed in a 37° C. water bath. The vials were swirled gently until the contents had thawed. They were then immediately emptied into 48 mL of pre-warmed HT medium in a 50 mL conical tube. Cells remaining in the vial were resuspended with 1.0 mL of pre-warmed HT medium and added to the conical tube. The tube was capped and then gently inverted several times to re-suspend the hepatocytes. The cell suspension was centrifuged at 500×g for 10 minutes at room temperature and the supernatant discarded. The cell pellet was loosened by gently swirling the centrifuge tube. Non-supplemented KHB medium was added to obtain the appropriate target cell density.
(§7) For incubations, aliquots of hepatocyte suspension (250 mL at a concentration of 2×10^6 cells/mL) were added to 250 mL of 2 mM of each tested compound in KHB, in duplicate wells in a 24-well plate. Final concentration in the incubations were 1×10^6 cells/mL and 1 mM of each tested compound. […] A cell-free control was also tested in parallel with the incubations. The incubations were carried out with gentle shaking in a 37° C. incubator under a humid atmosphere of 95% air/5% CO2 (v/v). Aliquots (100 mL) were removed after 0, 1, 3, and 6 hours and added to 200 mL IS/Q. The samples were then placed on a shaker for 10 min followed by centrifugation at 3000×g for 20 min. The supernatant was transferred to a new plate and diluted with 100 μL of water to reduce the organic solvent content and then placed on a shaker for 10 mins. Samples were injected and analyzed using LC-MS/MS.

TLR7 = TLR7 (Homo sapiens (Human), UniProt Q9NYK1); test: TLR7 human peripheral blood mononuclear cell (PBMC) cell-based assay (GS-986 as agonist; IL-6 and IFNα readout); conditions: human PBMCs, TLR7 agonist GS-986 at 400 nM, 6 hours, antagonist potency; read-out: TLR-7 EC50
In short: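 Human PBMCs (100,000 cells/well) preincubated 1 h at 37 °C with antagonist in 10-point dose response, then stimulated with TLR7 agonist for a further 6 h at 37 °C, 5% CO2. Supernatant IL-6 and IFNα measured by electrochemiluminescence immunoassay.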

[3] = target: MATE2-K (multidrug and toxin extrusion protein 2) (Homo sapiens (Human), UniProt Q86VL8); test: MATE2-K IC50 assay (14C-metformin uptake in transfected MDCK-II cells); type: in vitro ADME
Experimental: MATE2-K (multidrug and toxin extrusion protein 2) is expressed in the apical membrane in the kidney and mediates the elimination of compounds to urine. MDCK-II cells were maintained in DMEM with low glucose and 10% FBS. Cells passages up to 40 were seeded at 60K±10K cells/well on 96-well, transwell membrane plates approximately 24 hours before transfection. Transport assays were carried out approximately 48 hours after transfection. […]. The assay plate was then placed in a 37° C. incubator with orbital shaking at approximately 60 RPM for the pre-incubation time of 15 minutes. […]. The assay plate was incubated at 37° C. with orbital shaking at approximately 60 RPM for the incubation time of 5 minutes. At end of the 5-minute incubation, 15 μL of dosing solution was removed from each well containing the compound being tested and measured using LC/MS/MS for dose recovery assessment. The assay wells were then washed four times with ice cold PBS. 60 μL cell extraction solution was added to each well and the plate was incubated at 37° C. with orbital shaking at approximately 60 RPM for the 15 minutes. After this incubation, 30 μL was removed from each well, added to 200 μL scintillation fluid, and counted on a 1450 Microbeta (Perkin-Elmer) to measure the probe substrate uptake. Inhibition potential of the compound being tested was calculated by dividing the transporter-mediated uptake rate in presence of the compound being tested or the reference inhibitor by the transporter-mediated uptake rate in presence of vehicle control and fitted to a sigmoidal function to determine the IC50 values.

[4] = test system: cryopreserved hepatocytes; conditions: human, 1 μM
Experimental: as §6, §7

physchem = conditions: 22.8 °C, pH 7.4, aqueous buffer, kinetic from dmso stock
Experimental: Kinetic Solubility at pH 7.4
as §1, §2, §3, §4, §5

[5] = transfected MDCK-II cells, 10 μM 14C-metformin probe substrate, read-out: MATE2-K IC50

Sequence of TLR7 (Q9NYK1 27-1049): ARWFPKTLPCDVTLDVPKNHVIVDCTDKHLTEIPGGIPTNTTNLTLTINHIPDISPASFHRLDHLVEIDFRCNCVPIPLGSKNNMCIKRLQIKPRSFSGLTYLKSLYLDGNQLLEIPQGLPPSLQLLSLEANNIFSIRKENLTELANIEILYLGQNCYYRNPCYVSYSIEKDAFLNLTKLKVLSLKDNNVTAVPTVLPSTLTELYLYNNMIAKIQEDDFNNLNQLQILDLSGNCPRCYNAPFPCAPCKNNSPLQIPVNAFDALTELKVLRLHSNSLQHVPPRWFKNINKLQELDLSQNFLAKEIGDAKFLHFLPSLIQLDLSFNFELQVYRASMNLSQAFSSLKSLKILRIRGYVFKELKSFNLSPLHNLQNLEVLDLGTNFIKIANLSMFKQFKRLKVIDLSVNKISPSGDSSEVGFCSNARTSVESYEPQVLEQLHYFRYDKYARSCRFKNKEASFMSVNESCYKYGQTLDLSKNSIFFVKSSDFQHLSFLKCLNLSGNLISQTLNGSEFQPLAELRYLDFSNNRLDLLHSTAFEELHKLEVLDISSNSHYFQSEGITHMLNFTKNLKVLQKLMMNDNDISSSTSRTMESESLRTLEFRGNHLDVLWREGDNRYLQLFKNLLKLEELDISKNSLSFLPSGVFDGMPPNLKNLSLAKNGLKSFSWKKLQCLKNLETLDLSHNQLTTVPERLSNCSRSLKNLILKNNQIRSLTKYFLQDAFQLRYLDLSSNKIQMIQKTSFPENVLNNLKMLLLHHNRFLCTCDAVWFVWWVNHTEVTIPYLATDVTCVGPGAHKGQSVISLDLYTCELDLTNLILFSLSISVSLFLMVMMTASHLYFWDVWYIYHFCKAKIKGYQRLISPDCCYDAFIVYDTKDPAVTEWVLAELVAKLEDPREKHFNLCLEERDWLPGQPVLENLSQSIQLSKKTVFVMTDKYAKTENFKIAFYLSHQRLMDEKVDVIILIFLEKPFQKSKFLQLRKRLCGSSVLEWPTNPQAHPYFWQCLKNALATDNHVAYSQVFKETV
Sequence of MATE2-K (multidrug and toxin extrusion protein 2) (Q86VL8 other isoform, or with tags, fused parts or gaps, species assumed): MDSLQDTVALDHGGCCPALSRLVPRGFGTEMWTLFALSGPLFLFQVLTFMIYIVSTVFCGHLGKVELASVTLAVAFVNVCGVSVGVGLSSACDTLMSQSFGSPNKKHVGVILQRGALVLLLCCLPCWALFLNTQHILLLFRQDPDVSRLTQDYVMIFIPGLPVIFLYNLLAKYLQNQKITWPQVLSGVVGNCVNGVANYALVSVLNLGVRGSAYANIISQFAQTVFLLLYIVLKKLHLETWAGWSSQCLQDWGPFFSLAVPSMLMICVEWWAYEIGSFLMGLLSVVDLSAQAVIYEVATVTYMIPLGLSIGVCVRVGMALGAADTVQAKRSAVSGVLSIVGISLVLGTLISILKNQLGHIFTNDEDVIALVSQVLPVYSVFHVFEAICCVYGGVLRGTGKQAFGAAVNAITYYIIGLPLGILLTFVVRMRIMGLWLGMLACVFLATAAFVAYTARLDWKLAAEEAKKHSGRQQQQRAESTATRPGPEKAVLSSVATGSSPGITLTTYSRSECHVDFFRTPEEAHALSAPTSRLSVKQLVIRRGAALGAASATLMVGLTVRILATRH
Sequence of TLR8 (Q9NR97 27-1041): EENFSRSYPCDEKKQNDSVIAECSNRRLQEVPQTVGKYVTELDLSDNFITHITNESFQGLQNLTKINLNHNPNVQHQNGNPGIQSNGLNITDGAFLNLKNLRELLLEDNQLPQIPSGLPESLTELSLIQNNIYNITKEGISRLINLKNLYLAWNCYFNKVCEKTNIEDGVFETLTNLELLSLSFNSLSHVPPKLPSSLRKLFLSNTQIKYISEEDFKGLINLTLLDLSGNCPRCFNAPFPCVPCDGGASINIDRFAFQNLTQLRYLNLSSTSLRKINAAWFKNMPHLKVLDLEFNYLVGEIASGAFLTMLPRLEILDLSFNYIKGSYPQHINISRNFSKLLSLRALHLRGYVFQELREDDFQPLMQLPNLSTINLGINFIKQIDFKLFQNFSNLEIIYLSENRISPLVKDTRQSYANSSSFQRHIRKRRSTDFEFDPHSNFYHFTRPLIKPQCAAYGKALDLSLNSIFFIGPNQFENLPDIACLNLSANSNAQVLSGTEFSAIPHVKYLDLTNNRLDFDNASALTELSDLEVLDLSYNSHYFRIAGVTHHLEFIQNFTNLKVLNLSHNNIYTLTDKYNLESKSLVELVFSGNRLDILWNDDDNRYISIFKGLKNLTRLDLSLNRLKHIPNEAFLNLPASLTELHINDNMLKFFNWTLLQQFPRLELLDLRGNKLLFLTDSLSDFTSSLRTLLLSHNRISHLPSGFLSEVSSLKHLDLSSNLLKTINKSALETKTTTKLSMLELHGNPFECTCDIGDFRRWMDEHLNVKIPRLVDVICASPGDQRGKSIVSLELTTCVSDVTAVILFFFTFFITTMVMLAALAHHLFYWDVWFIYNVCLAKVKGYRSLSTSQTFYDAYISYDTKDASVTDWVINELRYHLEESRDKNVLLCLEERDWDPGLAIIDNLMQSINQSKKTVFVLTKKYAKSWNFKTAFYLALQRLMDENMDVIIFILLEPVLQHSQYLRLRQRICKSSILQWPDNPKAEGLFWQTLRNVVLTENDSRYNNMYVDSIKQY

SMILES: Cc1c(-c2[nH]c3sc([C@@H]4C[C@@H]5C[C@H]4CN5CCO)c(C)c3c2C(C)C)cn2ncnc2c1C [Example 229]
- EC50 (TLR8): 0.35 nM
- solubility kinetic at 24 h [1]: 0.0277 mg/mL (≈ 59.7 µM)
- Predicted Clearance [2]: 0.22 L/h/kg
- EC50 (TLR7): 0.06 nM

SMILES: Cc1c(-c2[nH]c3sc([C@@H]4C[C@@H]5C[C@H]4CN5CC(N)=O)cc3c2C(C)C)cn2ncnc2c1C [Example 97]
- EC50 (TLR8): 1.09 nM
- solubility kinetic at 24 h [1]: 0.0228 mg/mL (≈ 49.3 µM)
- Predicted Clearance [2]: 0.81 L/h/kg
- EC50 (TLR7): 0.31 nM

SMILES: Cc1c(-c2[nH]c3sc(C4CCN(C(=O)[C@H]5COCCN5)CC4)c(C)c3c2C(C)C)cn2ncnc2c1C [Example 56]
- IC50 [3, 5]: 7700 nM
- EC50 (TLR8): 2.46 nM
- solubility kinetic at 24 h [1]: 0.0265 mg/mL (≈ 50.9 µM)
- Predicted Clearance [2]: 0.25 L/h/kg
- EC50 (TLR7): 0.24 nM

SMILES: Cc1c(-c2[nH]c3sc(C4CCN(CC(N)=O)CC4)c(C)c3c2C(C)C)cn2ncnc2c1C [Example 67]
- IC50 [3]: 6200 nM
- EC50 (TLR8): 2.08 nM
- solubility kinetic at 24 h [1]: 0.0168 mg/mL (≈ 36.2 µM)
- Predicted Clearance [2]: 0.14 L/h/kg
- EC50 (TLR7): 0.35 nM

SMILES: Cc1c(-c2[nH]c3sc([C@@H]4C[C@@H]5C[C@H]4CN5Cc4cn(C)nn4)c(C)c3c2C(C)C)cn2ncnc2c1C [Example 175]
- EC50 (TLR8): < 0.05 nM
- solubility kinetic at 24 h [1]: 0.0211 mg/mL (≈ 41 µM)
- Predicted Clearance [2]: 0.26 L/h/kg
- EC50 (TLR7): < 0.05 nM

SMILES: Cc1c(-c2[nH]c3sc([C@H]4C[C@H]5C[C@@H]4CN5CC(N)=O)c(C)c3c2C(C)C)cn2ncnc2c1C [Example 84]
- EC50 (TLR8): 0.81 nM
- Predicted Clearance [2]: 0.53 L/h/kg
- EC50 (TLR7): 0.13 nM

SMILES: Cc1c(-c2[nH]c3sc([C@@H]4C[C@@H]5C[C@H]4CN5C(C)C(N)=O)c(C)c3c2C(C)C)cn2ncnc2c1C (single isomer, unassigned) [Example 100]
- IC50 [3, 5]: 9700 nM
- EC50 (TLR8): 0.71 nM
- solubility kinetic at 24 h [1]: 0.0235 mg/mL (≈ 47.9 µM)
- EC50 (TLR7): 0.32 nM

SMILES: Cc1c(-c2[nH]c3ccc(C4CCN(CC(N)=O)CC4)cc3c2C(C)C)cn2ncnc2c1C [Example A-1, reference compound]
- IC50 [3, 5]: 300 nM
- solubility kinetic at 24 h [1]: < 0.001 mg/mL
- Predicted Clearance [2]: 0.27 L/h/kg

SMILES: Cc1c(-c2[nH]c3sc(C4CCN(C(=O)[C@H]5CCCN5)CC4)c(C)c3c2C(C)C)cn2ncnc2c1C [Example 98]
- EC50 (TLR8): 4.48 nM
- solubility kinetic at 24 h [1]: 0.0249 mg/mL (≈ 49.3 µM)
- Predicted Clearance [2]: 0.11 L/h/kg
- EC50 (TLR7): 0.05 nM

SMILES: COc1cc(-c2[nH]c3cc(C4CCNCC4)sc3c2C(C)C)cn2ncnc12 [Example B-1, reference compound]
- IC50 [3]: 1100 nM
- EC50 (TLR8): 2.55 nM
- solubility kinetic at 24 h [1]: 0.022 mg/mL (≈ 55.6 µM)
- Predicted Clearance [2]: 0.26 L/h/kg
- EC50 (TLR7): 0.3 nM

SMILES: CNC(=O)CN1C[C@@H]2C[C@H]1C[C@H]2c1sc2[nH]c(-c3cn4ncnc4c(C)c3C)c(C(C)C)c2c1C [Example 82]
- IC50 [3]: > 14500 nM
- EC50 (TLR8): 0.17 nM
- EC50 (TLR7): 0.37 nM

SMILES: Cc1c(-c2[nH]c3sc([C@@H]4C[C@@H]5C[C@H]4CN5CC(N)=O)c(C)c3c2C(C)C)cn2ncnc2c1C [Example 79, 2-((1S,4R,5R)-5-(5-(7,8-dimethyl-[1,2,4]triazolo[1,5-a]pyridin-6-yl)-4 isopropyl-3-methyl-6H-thieno[2,3-b]pyrrol-2-yl)-2-azabicyclo[2.2.1]heptan-2-yl)acetamide]
- IC50 [3]: 8100 nM
- EC50 (TLR8): 0.23 nM
- solubility kinetic at 24 h [1]: 0.0215 mg/mL (≈ 45.1 µM)
- Predicted Clearance [2]: 0.26 L/h/kg
- EC50 (TLR7): 0.12 nM

SMILES: Cc1c(-c2[nH]c3sc([C@H]4C[C@@H]5C[C@H]4CN5CC(N)=O)c(C)c3c2C(C)C)cn2ncnc2c1C [Example 183]
- EC50 (TLR8): 2.82 nM
- Predicted Clearance [2]: 0.64 L/h/kg
- EC50 (TLR7): 0.07 nM

SMILES: Cc1c(-c2[nH]c3sc(C4CCN(CC(N)=O)CC4)cc3c2C(C)C)cn2ncnc2c1C [Example 221]
- EC50 (TLR8): 3.2 nM
- solubility kinetic at 24 h [1]: 0.001 mg/mL (≈ 2.22 µM)
- Predicted Clearance [2]: 0.16 L/h/kg
- EC50 (TLR7): 0.99 nM

SMILES: Cc1c(-c2[nH]c3sc([C@@H]4C[C@H]5CC[C@@H](C4)N5CC(N)=O)c(C)c3c2C(C)C)cn2ncnc2c1C [Example 91]
- IC50 [3]: 7800 nM
- EC50 (TLR8): 5.41 nM
- Predicted Clearance [4]: 0.24 L/h/kg
- solubility kinetic at 24 h (physchem): 0.0022 mg/mL (≈ 4.48 µM)
- EC50 (TLR7): 0.09 nM

SMILES: Cc1c(-c2[nH]c3sc(C4CCN(C(=O)[C@H]5C[C@@]6(CN(C)CCO6)C5)CC4)c(C)c3c2C(C)C)cn2ncnc2c1C [Example 296, [4-[5-(7,8-dimethyl-[1,2,4]triazolo[1,5-a]pyridin-6-yl)-4-isopropyl-3-methyl-6H-thieno[2,3-b]pyrrol-2-yl]-1-piperidyl]-(8-methyl-5-oxa-8-azaspiro[3.5]nonan-2-yl)methanone]
- EC50 (TLR8): 8.94 nM
- EC50 (TLR7): < 0.05 nM

SMILES: Cc1c(C2C[C@H]3CNC[C@H]3C2)sc2[nH]c(-c3cc(C)c4ncnn4c3)c(C(C)C)c12 (single isomer, unassigned) [Example 69]
- EC50 (TLR8): 4.2 nM
- EC50 (TLR7): 0.05 nM

SMILES: Cc1c(-c2[nH]c3sc(C4CCN(C(=O)[C@H]5C[C@@]6(CN(CCO)CCO6)C5)CC4)c(C)c3c2C(C)C)cn2ncnc2c1C [Example 295, [4-[5-(7,8-dimethyl-[1,2,4]triazolo[1,5-a]pyridin-6-yl)-4-isopropyl-3-methyl-6H-thieno[2,3-b]pyrrol-2-yl]-1-piperidyl]-[8-(2-hydroxethyl)-5-oxa-8-azaspiro[3.5]nonan-2-yl]methanone]
- EC50 (TLR8): 18.5 nM
- EC50 (TLR7): 0.06 nM

SMILES: Cc1c(C2CCN(CC(N)=O)CC2)sc2[nH]c(C3=NC(C)c4ncccc43)c(C(C)C)c12 (stereo not shown) [Example 232]
- EC50 (TLR8): 18.8 nM
- EC50 (TLR7): 0.83 nM

SMILES: CO[C@H]1CN[C@@H](C(=O)N2CCC(c3sc4[nH]c(-c5cc(C)c6ncnn6c5)c(C(C)C)c4c3C)CC2)C1 [Example 44]
- EC50 (TLR8): 13.1 nM
- EC50 (TLR7): 0.37 nM

SMILES: Cc1c(-c2[nH]c3sc(C4CCN(C(=O)[C@@H]5CCCN5)CC4)c(C)c3c2C(C)C)cn2ncnc2c1C [Example 99]
- EC50 (TLR8): 5.96 nM
- EC50 (TLR7): 0.43 nM

SMILES: Cc1c(C2CCCN(CC(N)=O)CC2)sc2[nH]c(-c3cc(C)c4ncnn4c3)c(C(C)C)c12 (single isomer, unassigned) [Example 263, 2-(4-(4-isopropyl-3-methyl-5-(8-methyl-[1,2,4]triazolo[1,5-a]pyridin-6-yl)-6H-thieno[2,3-b]pyrrol-2-yl)azepan-1-yl)acetamide]
- EC50 (TLR8): 18.6 nM
- EC50 (TLR7): 1.17 nM

SMILES: Cc1c(-c2[nH]c3sc([C@H]4C[C@H]5C[C@@H]4CN5)c(C)c3c2C(C)C)cn2ncnc2c1C [Example 74]
- EC50 (TLR8): 0.94 nM
- EC50 (TLR7): 0.05 nM

SMILES: Cc1c(-c2[nH]c3sc([C@H]4C[C@H](c5nnc([C@@H]6COCCN6)o5)C4)c(C)c3c2C(C)C)cn2ncnc2c1C (single isomer, unassigned) [Example 242]
- EC50 (TLR8): 37.3 nM
- EC50 (TLR7): 2.9 nM

SMILES: Cc1c(-c2[nH]c3sc([C@@H]4C[C@@H]5C[C@H]4CN5CC(=O)N4CC(O)C4)c(C)c3c2C(C)C)cn2ncnc2c1C [Example 265, 2-((1S,4R,5R)-5-(5-(7,8-dimethyl-[1,2,4]triazolo[1,5-a]pyridin-6-yl)-4 isopropyl-3-methyl-6H-thieno[2,3-b]pyrrol-2-yl)-2-azabicyclo[2.2.1]heptan-2-yl)-1-(3-hydroxyazetidin-1-yl)ethan-1-one]
- EC50 (TLR8): 0.83 nM
- EC50 (TLR7): 0.97 nM

SMILES: Cc1c(-c2[nH]c3sc([C@@H]4C[C@@H]5CC[C@H]4CN5CC(=O)N(C)C)c(C)c3c2C(C)C)cn2ncnc2c1C (single isomer, unassigned) [Example 213]
- EC50 (TLR8): 3.64 nM
- EC50 (TLR7): 4.05 nM

SMILES: Cc1c(C2CCN(CC(N)=O)CC2)sc2[nH]c(-c3ccc(C#N)c4ncccc34)c(C(C)C)c12 [Example 230]
- EC50 (TLR8): 14 nM
- EC50 (TLR7): 0.81 nM

SMILES: Cc1c(-c2[nH]c3sc(C4CCN(C(=O)[C@@H]5CNCCO5)CC4)c(C)c3c2C(C)C)cn2ncnc2c1C [Example 109]
- EC50 (TLR8): 3.45 nM
- EC50 (TLR7): < 0.05 nM

SMILES: Cc1c(-c2[nH]c3sc(C4CCC(C(=O)N5CCNCC5)CC4)c(C)c3c2C(C)C)cn2ncnc2c1C (stereo not shown) [Example 309, (4-(5-(7,8-dimethyl-[1,2,4]triazolo[1,5-a]pyridin-6-yl)-4-isopropyl-3-methyl-6H-thieno[2,3-b]pyrrol-2-yl)cyclohexyl)(piperazin-1-yl)methanone]
- EC50 (TLR8): 8.07 nM
- EC50 (TLR7): 0.14 nM

SMILES: Cc1c(C2CC3(CCN(CC(N)=O)CC3)C2)sc2[nH]c(-c3cc(C)c4ncnn4c3)c(C(C)C)c12 [Example 124]
- EC50 (TLR8): 3.22 nM
- EC50 (TLR7): 0.3 nM
